Laboratory results: publication PMC7533260, “Design and tests of prospective property predictions for novel antimalarial 2-aminopropylaminoquinolones” (Journal of Computer-Aided Molecular Design, 2020)
Read-outs that look alike come from different tables or passages of the source.

Experiments:
s-PfDHODH [1] = target: T1, s-PfDHODH (Plasmodium falciparum, UniProt Q08210); experiment: Literature inhibition data for soluble recombinant PfDHODH (s-PfDHODH), dodecylubiquinone as substrate; format: biochemical
T1 sequence (Q08210 158-569 limits assumed): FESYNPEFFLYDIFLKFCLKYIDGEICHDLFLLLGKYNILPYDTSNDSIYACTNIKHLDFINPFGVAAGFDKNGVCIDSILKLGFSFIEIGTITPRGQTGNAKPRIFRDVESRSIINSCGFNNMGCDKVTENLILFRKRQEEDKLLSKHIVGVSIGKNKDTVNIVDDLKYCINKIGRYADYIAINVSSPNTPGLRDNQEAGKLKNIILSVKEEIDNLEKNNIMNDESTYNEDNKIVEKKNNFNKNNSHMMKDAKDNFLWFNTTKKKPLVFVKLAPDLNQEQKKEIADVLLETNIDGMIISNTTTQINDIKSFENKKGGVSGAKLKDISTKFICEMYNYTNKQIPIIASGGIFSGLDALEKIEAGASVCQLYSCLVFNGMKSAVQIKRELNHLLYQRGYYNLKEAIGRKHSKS
Source text: Data on PfDHODH inhibition were collected from the literature for a structurally diverse group of compounds. These included triazolopyrimidines, diphenylureas, and 2-cyano-3-hydroxy acrylanilides, among others. Quantitative data were not available for inhibition of the intact enzyme, which is bound to the mitochondrial membrane by its hydrophobic N-terminus in vivo [16]. […] The very low solubility of CoQ-10 limits its utility in vitro, so an artificial ubiquinone (dodecylubiquinone [DQ]) is usually used as substrate instead.
The IC50 data for these 89 compounds were converted to inhibition constants (Ki’s) by assuming competitive inhibition against DQ and applying the method described by Cheng and Prusoff. Two artificial neural network ensemble (ANNE) regression models were constructed (henceforth referred to as Model A and Model B) using ADMET Modeler™ module of ADMET Predictor® [18]. The models were built on distinct 20% hold-out test sets (see Supplementary Methods for details).

s-PfDHODH [2] = target: T1, s-PfDHODH; set-up: method as in earlier work; details: literature data used to construct QSAR models; cited from earlier work
[3] = converted from literature IC50 assuming competitive inhibition against DQ (Cheng and Prusoff), read-out: PfDHODH Ki

Row | SMILES | Ki (s-PfDHODH [1]) | IC50 (s-PfDHODH [2]) | Ki (s-PfDHODH [1]; [3])
1 | COc1ccccc1NC(=O)Nc1cccc2ccccc12 [Compound B12] | 0.12 µM | – | –
2 | C/C(O)=C(/C#N)C(=O)Nc1ccc(-c2ccccc2)cc1 [Compound D10] | 3 µM | 25.7 µM | –
3 | Cc1ccccc1/C=C/c1cc(O)c2ccccc2n1 [Compound P01] | – | – | 0.4 µM
4 | CCCNC(=O)c1ccc(-n2cnc3ccccc32)s1 [Compound P10] | – | – | 0.3 µM
5 | C/C(O)=C(/C#N)C(=O)Nc1ccc(-c2c(Cl)cccc2Cl)cc1Cl [Compound D21] | 1.2 µM | 10.2 µM | –
6 | Cc1nc2ncnn2c(Nc2ccc3ccccc3c2)c1C [Tz10] | – | – | 0.06 µM
7 | O=C(Nc1ccc(Cl)cc1Cl)c1ccc2ccccc2c1 [Compound B01] | 0.03 µM | – | –
8 | Cc1cc(Nc2ccccc2)n2ncnc2n1 [Tz19] | 40 µM | – | –
9 | O=C(NC1CC1)c1ccc(N2CCSc3ccccc32)s1 [Compound P04] | – | – | 0.11 µM
10 | Cc1cc(Nc2ccc(F)c(F)c2F)n2ncnc2n1 [Compound G31] | – | – | 11.6 µM
11 | O=C(Nc1ccccc1C(F)(F)F)Nc1cccc2ccccc12 [Compound B11] | 0.18 µM | – | –
12 | Cc1cc(Nc2cccc(C(F)(F)F)c2)n2ncnc2n1 [Compound G16] | – | – | 5.6 µM
13 | Cc1cc(Nc2ccc3c(=O)cc(C)oc3c2)n2ncnc2n1 [Tz17] | – | – | 0.8 µM
14 | Cc1c(C(=O)Nc2ccc(Cl)c(Cl)c2)cccc1[N+](=O)[O-] [Compound B09] | 0.04 µM | – | –
15 | Cc1cc(Nc2ccc3ncccc3c2)n2ncnc2n1 [Tz15] | – | – | 0.48 µM
16 | Cc1cc(Nc2ccc(C)c(C)c2)n2ncnc2n1 [Compound G44] | – | – | 0.14 µM
17 | Cc1ccc(Nc2cc(C)nc3ncnn23)c(F)c1 [Compound G36] | – | – | 10.8 µM
18 | C/C(O)=C(/C#N)C(=O)Nc1ccc(-c2cccc(Cl)c2)c(Cl)c1 [Compound D25] | – | 237 µM | 28 µM
19 | Cc1cc(Nc2ccc(OC(F)F)cc2)n2ncnc2n1 [Compound G24] | – | – | 1.12 µM
20 | FC(F)(F)c1cc(Nc2ccc3ccccc3c2)n2ncnc2n1 [Tz08] | – | – | 0.08 µM
21 | Cc1cc(N(C)c2ccc3ccccc3c2)n2ncnc2n1 [Tz11] | – | – | 1.2 µM

Row | SMILES | Ki (s-PfDHODH [1]) | IC50 (s-PfDHODH [2]) | Ki (s-PfDHODH [1]; [3])
22 | C/C(O)=C(/C#N)C(=O)Nc1ccc(-c2cccc(Cl)c2)cc1Cl [Compound D22] | – | 49.1 µM | 5.8 µM
23 | CCOc1cccc(-c2ccc(NC(=O)/C(C#N)=C(\C)O)cc2)c1 [Compound D29] | 21.5 µM | 182 µM | –
24 | CCOC(=O)C(=CNc1ccccc1C)C(=O)OCC [He09] | 39.7 µM | – | –
25 | Cc1cc(Nc2ccc(C(N)=O)cc2)n2ncnc2n1 [Tz13] | 80 µM | – | –
26 | Cc1c(C(=O)Nc2cccc(C(F)(F)F)c2)cccc1[N+](=O)[O-] [Compound B10] | 0.04 µM | – | –
27 | Cc1cc(Nc2cnc3ccccc3c2)n2ncnc2n1 [Tz14] | – | – | 0.68 µM
28 | CCOC(=O)C(=CNc1ccc2[nH]cnc2c1)C(=O)OCC [He10] | 40.2 µM | – | –
29 | CCCNC(=O)c1ccc(-n2ccc3ccccc32)s1 [Compound P06] | 0.2 µM | – | –
30 | Cc1cc(N(Cc2ccccc2)c2ccc3ccccc3c2)n2ncnc2n1 [Tz12] | – | – | 37.2 µM
31 | Cc1cc(Nc2ccc(Br)c(C(F)(F)F)c2)n2ncnc2n1 [Compound G42] | – | – | 0.18 µM
32 | Cc1cc(Nc2cc(F)cc(F)c2)n2ncnc2n1 [Compound G38] | – | – | 3.76 µM
33 | Cc1cc(Nc2ccc(C)c(F)c2)n2ncnc2n1 [Compound G46] | – | – | 0.34 µM
34 | C/C(O)=C(/C#N)C(=O)Nc1ccc(-c2cccc(Cl)c2Cl)cc1 [Compound D26] | – | 27.2 µM | 3.2 µM
35 | CCCCCC1CCCc2c1nc1ccccc1c2O (stereo not shown) [Compound P02] | – | – | 0.15 µM
36 | Cc1cc(Nc2ccc([N+](=O)[O-])cc2)n2ncnc2n1 [Compound G25] | – | – | 1.72 µM
37 | Cc1c(C(=O)Nc2cccc3ccccc23)cccc1[N+](=O)[O-] [Compound B08] | 0.03 µM | – | –
38 | Cc1cc(Nc2ccc(OC(F)(F)F)cc2)n2ncnc2n1 [Compound G23] | – | – | 0.48 µM
39 | C/C(O)=C(/C#N)C(=O)Nc1ccc(-c2ccccc2Cl)cc1Cl [Compound D17] | – | 4 µM | 0.48 µM
40 | Cc1ccc(Nc2cc(C)nc3ncnn23)cc1 [Compound G20] | – | – | 1.68 µM
41 | Cc1cc(Nc2cc(F)c(F)cc2F)n2ncnc2n1 [Compound G32] | – | – | 6.8 µM
42 | Cc1cc(Nc2ccc(Br)cc2)n2ncnc2n1 [Compound G19] | – | – | 0.31 µM

Row | SMILES | Ki (s-PfDHODH [1]) | IC50 (s-PfDHODH [2]) | Ki (s-PfDHODH [1]; [3])
43 | Cc1cc(Nc2ccc(Cc3ccccc3)cc2)n2ncnc2n1 [Compound G27] | – | – | 0.88 µM
44 | O=C(Nc1ccccc1F)c1ccc2ccccc2c1 [Compound B03] | 0.2 µM | – | –
45 | Cc1c(C(=O)Nc2cc(Cl)cc(Cl)c2)cccc1[N+](=O)[O-] [Compound B06] | – | – | 0.01 µM
46 | C/C(O)=C(/C#N)C(=O)Nc1ccc(-c2ccccc2Cl)cc1 [Compound D27] | 5.6 µM | 47.4 µM | –
47 | Cc1cc(Nc2ccc(F)c(F)c2)n2ncnc2n1 [Compound G37] | – | – | 3.2 µM
48 | Cc1cc(Nc2cccc3ccccc23)n2ncnc2n1 [Tz18] | – | – | 18 µM
49 | C/C(O)=C(/C#N)C(=O)Nc1ccc(-c2ccccc2Cl)c(Cl)c1 [Compound D24] | 20.5 µM | 165 µM | –
50 | Cc1cc(Nc2ccc(C(F)(F)F)c(F)c2)n2ncnc2n1 [Compound G47] | 0.03 µM | 0.08 µM | –
51 | CCOC(=O)C(=CNc1cccc(-c2ccccc2)c1)C(=O)OCC [He14] | 10 µM | – | –
52 | C/C(O)=C(/C#N)C(=O)Nc1ccc(-c2ccccc2)cc1Cl [Compound D28] | – | 51.1 µM | 6 µM
53 | Cc1cccc(Nc2cc(C)nc3ncnn23)c1 [Compound G15] | – | – | 1.96 µM
54 | Cc1cc(Nc2ccc(Cl)cc2)n2ncnc2n1 [Compound G18] | – | – | 0.64 µM
55 | C/C(O)=C(\C#N)C(=O)Nc1ccc(-c2cccc(Cl)c2)cc1C(F)(F)F [Compound D23] | 6.8 µM | 57.2 µM | –
56 | CCc1cc(Nc2ccc3ccccc3c2)n2ncnc2n1 [Tz09] | – | – | 0.08 µM
57 | CCOC(=O)C(=CNc1ccc2[nH]ncc2c1)C(=O)OCC [He07] | – | – | 3.2 µM
58 | Cc1c(C(=O)Nc2ccc(F)c(Cl)c2)cccc1[N+](=O)[O-] [Compound B05] | 0.04 µM | – | –
59 | Cc1c(C(=O)Nc2cccc(Br)c2)cccc1[N+](=O)[O-] [Compound B04] | 0.02 µM | – | –
60 | CCOC(=O)C(=CNc1ccc2sc3ccccc3c2c1)C(=O)OCC [He05] | 0.02 µM | – | –
61 | O=C(Nc1ccc(Cl)cc1)Nc1cccc2cccnc12 [Compound B13] | 0.54 µM | – | –
62 | COc1ccccc1-c1ccc(NC(=O)/C(C#N)=C(\C)O)c(Cl)c1 [Compound D19] | – | 8.6 µM | 1 µM
63 | Cc1cc(Nc2cccc(Cl)c2)n2ncnc2n1 [Compound G14] | – | – | 0.56 µM

Row | SMILES | Ki (s-PfDHODH [1]) | IC50 (s-PfDHODH [2]) | Ki (s-PfDHODH [1]; [3])
64 | CCOC(=O)C(=CNc1ccc(C)cc1)C(=O)OCC [He08] | 4.6 µM | – | –
65 | Cc1cc(Nc2ccc(-c3ccccc3)cc2)n2ncnc2n1 [Compound G26] | – | – | 2.12 µM
66 | Cc1cc(Nc2ccc(Cl)c(C(F)(F)F)c2)n2ncnc2n1 [Compound G41] | – | – | 0.32 µM
67 | Cc1c(C(=O)Nc2ccc(F)c(F)c2)cccc1[N+](=O)[O-] [Compound B07] | 0.14 µM | – | –
68 | Cc1cc(Nc2ccc(F)c(C)c2)n2ncnc2n1 [Compound G40] | – | – | 1.84 µM
69 | COc1ccc(Nc2cc(C)nc3ncnn23)cc1 [Compound G22] | – | – | 1.84 µM
70 | N#C/C(C(=O)Nc1ccc(C(F)(F)F)cc1)=C(/O)C1CC1 [Compound D04] | – | 92.5 µM | 11 µM
71 | C/C(O)=C(\C#N)C(=O)Nc1ccc(-c2ccccc2Cl)cc1C(F)(F)F [Compound D18] | – | 6.2 µM | 0.73 µM
72 | Cc1cc(Nc2cccc(F)c2)n2ncnc2n1 [Compound G13] | – | – | 3.68 µM
73 | Cc1cc(Nc2ccc(C#N)c(C(F)(F)F)c2)n2ncnc2n1 [Compound G45] | 1.96 µM | – | –
74 | Cc1cc(Nc2ccc(C)c(C(F)(F)F)c2)n2ncnc2n1 [Compound G43] | – | – | 0.62 µM
75 | Cc1cc(Nc2ccc3cc4ccccc4cc3c2)n2ncnc2n1 [Tz20] | 0.02 µM | – | –
76 | C/C(O)=C(/C#N)C(=O)Nc1ccc(-c2cccc(Cl)c2Cl)cc1Cl [Compound D20] | – | 9.9 µM | 1.2 µM
77 | CCOC(=O)/C(C#N)=C\Nc1ccc2c(c1)c1ccccc1n2CC [He06] | 0.05 µM | – | –
78 | CCCNC(=O)c1ccc(-n2c(C)nc3ccccc32)s1 [Compound P11] | – | – | 0.07 µM
79 | CCCNC(=O)c1ccc(-n2c(C)cc3ccccc32)s1 [Compound P03] | 0.02 µM | – | –
80 | Cc1cc(Nc2cc3ccccc3cc2O)n2ncnc2n1 [Tz16] | – | – | 0.13 µM
81 | Cc1cc(Nc2ccc(F)cc2)n2ncnc2n1 [Compound G17] | – | – | 7.6 µM
